Non-standard residues stand in square brackets, D forms with d. Residues, ends and D or L forms follow the SMILES beside them. *: point of attachment. Dolaproine = CO[C@@H]([C@@H]1CCCN1)[C@@H](C)C(=O)O; Dil = CC[C@H](C)[C@H](NC)[C@@H](CC(=O)O)OC; NMe2Val = CC(C)[C@@H](C(=O)*)N(C)C; NH(3-hydroxypropyl) = OCCCN*
Tests used:
[1] = Tolerability of Auristatin F-hydroxypropylamide (MTD study); format: in vivo, mouse
Text: The vehicle control group received physiological saline.

[2] = biological target: 5T4 antigen on the cell surface (A431 cells and MDA-MB-231-5T4 OE cells) (human) (UniProt Q13641); assay: flow cytometry (MFI) on 5T4-expressing cells at 5 µg/mL, anti-Fc-FITC detection
UniProt Q13641, sequence (Q13641 32-420): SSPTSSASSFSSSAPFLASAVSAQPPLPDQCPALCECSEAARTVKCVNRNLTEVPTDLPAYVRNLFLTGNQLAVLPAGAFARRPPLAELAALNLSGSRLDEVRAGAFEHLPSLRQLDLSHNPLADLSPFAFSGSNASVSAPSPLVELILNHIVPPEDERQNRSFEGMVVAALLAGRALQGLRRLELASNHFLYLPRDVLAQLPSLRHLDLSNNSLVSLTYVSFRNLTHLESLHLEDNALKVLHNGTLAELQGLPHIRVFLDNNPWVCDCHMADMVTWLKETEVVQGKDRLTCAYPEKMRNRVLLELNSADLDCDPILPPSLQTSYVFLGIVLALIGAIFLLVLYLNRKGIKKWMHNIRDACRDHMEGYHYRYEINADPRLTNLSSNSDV

For CC[C@H](C)[C@@H]([C@@H](CC(=O)N1CCC[C@H]1[C@H](OC)[C@@H](C)C(=O)N[C@@H](Cc1ccccc1)C(=O)NCCCO)OC)N(C)C(=O)[C@@H](NC(=O)[C@H](C(C)C)N(C)C)C(C)C [AF-HPA, auristatin F hydroxypropyl amide] (NMe2Val-V[Dil][Dolaproine]F-{NH(3-hydroxypropyl)}), the “Animals survived by the end of the study (Day 21)” value ([1]; single IV dose 3.2 mg/kg) was 2 out of 6 and the Tolerability ([1]; single IV dose 4.7 mg/kg) was “exceeded the maximum tolerated dose”.

For unrelated scFvFc fusion protein, the fold less binding than the anti-5T4 scFvFc molecules [2] was 200 fold.
